Data on 4 compounds can be found in BindingDB's records for doi:10.1021/jm021073r (University of Bath, 2003).

The structures appear in SMILES notation. pEC50: −log10 of the molar value.

The target in this assay is Kappa-type opioid receptor (Homo sapiens, UniProt P41145). The assay is described as follows: Stimulation of U-69,593 binding at human recombinant Opioid receptor kappa 1 transfected into CHO cells.
Kappa-type opioid receptor, sequence (P41145 whole entry): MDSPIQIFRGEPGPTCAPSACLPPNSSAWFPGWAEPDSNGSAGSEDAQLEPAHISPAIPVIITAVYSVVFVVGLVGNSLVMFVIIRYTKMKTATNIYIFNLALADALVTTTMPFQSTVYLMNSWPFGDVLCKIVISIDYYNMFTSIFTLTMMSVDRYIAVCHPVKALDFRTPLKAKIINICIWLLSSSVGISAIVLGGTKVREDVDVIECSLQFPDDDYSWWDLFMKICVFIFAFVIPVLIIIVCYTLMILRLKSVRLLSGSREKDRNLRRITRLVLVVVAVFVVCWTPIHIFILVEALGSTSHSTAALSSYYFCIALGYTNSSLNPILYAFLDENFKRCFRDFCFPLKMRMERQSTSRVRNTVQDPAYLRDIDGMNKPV

Usually pEC50 stands for the negative decadic logarithm of the EC50, by convention in mol/L. As for `CN1CC[C@]23c4c5ccc(O)c4O[C@H]2c2[nH]c4ccccc4c2C[C@@]3(N)C1C5`, the pEC50 is 7.06.

Turning to `CN1CC[C@]23c4c5ccc(O)c4O[C@H]2c2[nH]c4ccccc4c2C[C@@]3(NC(=O)CCc2ccccc2)C1C5`, the pEC50 is 8.02.

Take `CCN[C@@]12Cc3c([nH]c4ccccc34)[C@@H]3Oc4c(O)ccc5c4[C@@]31CCN(C)C2C5`: the pEC50 was 7.01. The value for `CCCCCCC(=O)N[C@@]12Cc3c([nH]c4ccccc34)[C@@H]3Oc4c(O)ccc5c4[C@@]31CCN(C)C2C5` was 7.24.
